Data taken from PubChem BioAssay AID1963420 (Molecular Pharmacology Branch, DTP, NCI, 2024).
pIC50: −log10 of the molar value. Values joined by “and” are separate entries in the source; they are usually repeats but may differ in a detail not shown here. Identical values can stand only once. Blank lines part the entries; values can stand above or below the compound they belong to.

System: 494315-158-R-J1-PDC complex spheroid growth, percent test/control
Experiment: Anticancer human tumor 494315-158-R-J1-PDC patient-derived soft tissue sarcoma cell line growth inhibition [Asc]
Details: for viability, T/C: stronger effect = lower value
Method in brief: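 Concentration series start at each agent's clinical Cmax, or at 10 microM when none is established, and drop in half-log steps; agents are applied alone or together to complex spheroids built with HUVEC and hMSC.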

[1] = curve of first compound, second compound 0.1 µM
[2] = curve of first compound, second compound 0.316 µM
[3] = curve of first compound, second compound 1 µM
[4] = curve of first compound, second compound 3.16 µM
[5] = curve of first compound, second compound 10 µM
[6] = second compound 0.1 µM, first compound 0.0316 µM
[7] = second compound 0.1 µM, first compound 0.1 µM
[8] = second compound 0.1 µM, first compound 0.316 µM
[9] = second compound 0.1 µM, first compound 1 µM
[10] = second compound 0.1 µM, first compound 3.16 µM
[11] = second compound 0.1 µM, first compound 10 µM
[12] = second compound 0.316 µM, first compound 0.0316 µM
[13] = second compound 0.316 µM, first compound 0.1 µM
[14] = second compound 0.316 µM, first compound 0.316 µM
[15] = second compound 0.316 µM, first compound 1 µM
[16] = second compound 0.316 µM, first compound 3.16 µM
[17] = second compound 0.316 µM, first compound 10 µM
[18] = second compound 1 µM, first compound 0.0316 µM
[19] = second compound 1 µM, first compound 0.1 µM
[20] = second compound 1 µM, first compound 0.316 µM
[21] = second compound 1 µM, first compound 1 µM
[22] = second compound 1 µM, first compound 3.16 µM
[23] = second compound 1 µM, first compound 10 µM
[24] = second compound 3.16 µM, first compound 0.0316 µM
[25] = second compound 3.16 µM, first compound 0.1 µM
[26] = second compound 3.16 µM, first compound 0.316 µM
[27] = second compound 3.16 µM, first compound 1 µM
[28] = second compound 10 µM, first compound 0.0316 µM
[29] = second compound 10 µM, first compound 0.1 µM
[30] = second compound 10 µM, first compound 0.316 µM
[31] = second compound 10 µM, first compound 1 µM
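Note: compound exposure lasted seven days after spheroids formed for three days.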

pIC50 [1]: 5.52
pIC50 [2]: 5.79
pIC50 [3]: 5.79
pIC50 [4]: 5.97
pIC50 [5]: 5.65
Structure (SMILES): O=C(c1cc(Cc2n[nH]c(=O)c3ccccc23)ccc1F)N1CCN(C(=O)C2CC2)CC1 + Cc1c(S(C)(=O)=O)c(-c2cc(F)cc(N3CCN(c4ccc(NS(=O)(=O)c5ccc(NC(CCN6CCC(C(=O)OCCCP(=O)(O)O)CC6)CSc6ccccc6)c(S(=O)(=O)C(F)(F)F)c5)cc4)CC3)c2)c(-c2ccc(Cl)cc2)n1C(C)C
viability, T/C [6]: 86%
viability, T/C [7]: 76.2%
viability, T/C [8]: 69.2%
viability, T/C [9]: 63.5%
viability, T/C [10]: 49.5%
viability, T/C [11]: 36.3%
viability, T/C [12]: 71.7%
viability, T/C [13]: 66.4%
viability, T/C [14]: 59.7%
viability, T/C [15]: 57.6%
viability, T/C [16]: 42.5%
viability, T/C [17]: 33%
viability, T/C [18]: 62.7%
viability, T/C [19]: 70.9%
viability, T/C [20]: 62%
viability, T/C [21]: 57.8%
viability, T/C [22]: 40.1%
viability, T/C [23]: 23.4%
viability, T/C [24]: 48.1%
viability, T/C [25]: 51.8%
viability, T/C [26]: 53.5%
viability, T/C [27]: 51%
viability, T/C (second compound 3.16 µM, first compound 3.16 µM): 37%
viability, T/C (second compound 3.16 µM, first compound 10 µM): 22.2%
viability, T/C [28]: 69.5%
viability, T/C [29]: 77.1%
viability, T/C [30]: 73.4%
viability, T/C [31]: 58.5%
viability, T/C (second compound 10 µM, first compound 3.16 µM): 46.8%
viability, T/C (second compound 10 µM, first compound 10 µM): 29.3%

pIC50 (curve of first compound, second compound 0.03 µM): 7.34
pIC50 (curve of first compound, second compound 0.0949 µM): 7.41
pIC50 (curve of first compound, second compound 0.3 µM): 7.36
pIC50 (curve of first compound, second compound 0.949 µM): 7.45
pIC50 (curve of first compound, second compound 3 µM): 7.34
Structure (SMILES): COc1c(OCCCN2CCOCC2)ccc2c3n(c(=NC(=O)c4cnc(N)nc4)nc12)CCN3 + CCN1C(C(=O)NC23CCC(C(=O)O)(CC2)CC3)C(c2cccc(Cl)c2F)C2(C(=O)Nc3cc(Cl)ccc32)C12CCCCC2
viability, T/C (second compound 0.03 µM, first compound 0.00316 µM): 84%
viability, T/C (second compound 0.03 µM, first compound 0.01 µM): 80.5%
viability, T/C (second compound 0.03 µM, first compound 0.0316 µM): 58.5%
viability, T/C (second compound 0.03 µM, first compound 0.1 µM): 30.8%
viability, T/C (second compound 0.03 µM, first compound 0.316 µM): 20.5%
viability, T/C (second compound 0.03 µM, first compound 1 µM): 15.4%
viability, T/C (second compound 0.0949 µM, first compound 0.00316 µM): 78.7%
viability, T/C (second compound 0.0949 µM, first compound 0.01 µM): 73.7%
viability, T/C (second compound 0.0949 µM, first compound 0.0316 µM): 54%
viability, T/C (second compound 0.0949 µM, first compound 0.1 µM): 30.4%
viability, T/C (second compound 0.0949 µM, first compound 0.316 µM): 22%
viability, T/C (second compound 0.0949 µM, first compound 1 µM): 15.4%
viability, T/C (second compound 0.3 µM, first compound 0.00316 µM): 91.2%
viability, T/C (second compound 0.3 µM, first compound 0.01 µM): 90.4%
viability, T/C (second compound 0.3 µM, first compound 0.0316 µM): 49.9%
viability, T/C (second compound 0.3 µM, first compound 0.1 µM): 38%
viability, T/C (second compound 0.3 µM, first compound 0.316 µM): 22.3%
viability, T/C (second compound 0.3 µM, first compound 1 µM): 16.7%
viability, T/C (second compound 0.949 µM, first compound 0.00316 µM): 93.3%
viability, T/C (second compound 0.949 µM, first compound 0.01 µM): 81.6%
viability, T/C (second compound 0.949 µM, first compound 0.0316 µM): 50.6%
viability, T/C (second compound 0.949 µM, first compound 0.1 µM): 30.7%
viability, T/C (second compound 0.949 µM, first compound 0.316 µM): 19.2%
viability, T/C (second compound 0.949 µM, first compound 1 µM): 16.4%
viability, T/C (second compound 3 µM, first compound 0.00316 µM): 112%
viability, T/C (second compound 3 µM, first compound 0.01 µM): 86.5%
viability, T/C (second compound 3 µM, first compound 0.0316 µM): 59.6%
viability, T/C (second compound 3 µM, first compound 0.1 µM): 32.1%
viability, T/C (second compound 3 µM, first compound 0.316 µM): 22.6%
viability, T/C (second compound 3 µM, first compound 1 µM): 15.2%

pIC50 (curve of compound): < 7.00
Structure (SMILES): NC1CCC(NC2CC2c2ccccc2)CC1 (centres undefined)
viability, T/C (compound 0.000316 µM): 89% and 106% and 94%
viability, T/C (compound 0.001 µM): 76.7% and 90.3% and 92.3%
viability, T/C (compound 0.00316 µM): 75.3% and 86% and 84.9%
viability, T/C (compound 0.01 µM): 89% and 91.7% and 90.7%
viability, T/C (compound 0.0316 µM): 93.3% and 81.8% and 96.3%
viability, T/C (compound 0.1 µM): 88.3% and 94.6% and 95.1%

pIC50 [1]: < 6.00
pIC50 [2]: 6.08
pIC50 [3]: < 6.00
pIC50 [4]: 6.57
pIC50 [5]: 6.14
Structure (SMILES): CCN1CCN(Cc2ccc(Nc3ncc(F)c(-c4cc(F)c5nc(C)n(C(C)C)c5c4)n3)nc2)CC1 + Cc1c(S(C)(=O)=O)c(-c2cc(F)cc(N3CCN(c4ccc(NS(=O)(=O)c5ccc(NC(CCN6CCC(C(=O)OCCCP(=O)(O)O)CC6)CSc6ccccc6)c(S(=O)(=O)C(F)(F)F)c5)cc4)CC3)c2)c(-c2ccc(Cl)cc2)n1C(C)C
viability, T/C (second compound 0.1 µM, first compound 0.00316 µM): 75.6%
viability, T/C (second compound 0.1 µM, first compound 0.01 µM): 83%
viability, T/C [6]: 78.3%
viability, T/C [7]: 77.1%
viability, T/C [8]: 77.8%
viability, T/C [9]: 53.6%
viability, T/C (second compound 0.316 µM, first compound 0.00316 µM): 72.2%
viability, T/C (second compound 0.316 µM, first compound 0.01 µM): 79.8%
viability, T/C [12]: 78%
viability, T/C [13]: 67.1%
viability, T/C [14]: 70.9%
viability, T/C [15]: 46.1%
viability, T/C (second compound 1 µM, first compound 0.00316 µM): 61.9%
viability, T/C (second compound 1 µM, first compound 0.01 µM): 65.7%
viability, T/C [18]: 68%
viability, T/C [19]: 65.7%
viability, T/C [20]: 61.6%
viability, T/C [21]: 41.1%
viability, T/C (second compound 3.16 µM, first compound 0.00316 µM): 56.1%
viability, T/C (second compound 3.16 µM, first compound 0.01 µM): 52%
viability, T/C [24]: 54.3%
viability, T/C [25]: 61.4%
viability, T/C [26]: 46.2%
viability, T/C [27]: 31.3%
viability, T/C (second compound 10 µM, first compound 0.00316 µM): 79%
viability, T/C (second compound 10 µM, first compound 0.01 µM): 81%
viability, T/C [28]: 73.2%
viability, T/C [29]: 76.7%
viability, T/C [30]: 73.3%
viability, T/C [31]: 41%

pIC50 (curve of compound): < 5.00
Structure (SMILES): O=C(c1cc(Cc2n[nH]c(=O)c3ccccc23)ccc1F)N1CCN(C(=O)C2CC2)CC1
viability, T/C (compound 0.0316 µM): 83.7% and 85.7% and 88.2%
viability, T/C (compound 0.1 µM): 101% and 95% and 86.5%
viability, T/C (compound 0.316 µM): 76.7% and 88.8% and 89.9%
viability, T/C (compound 1 µM): 83.8% and 84.5% and 81.4%
viability, T/C (compound 3.16 µM): 69.5% and 85.8% and 85.3%
viability, T/C (compound 10 µM): 52.3% and 55.7% and 50%

pIC50 (curve of first compound, second compound 0.01 µM): 5.61
pIC50 (curve of first compound, second compound 0.0316 µM): 6.42
pIC50 [1]: > 7.50
pIC50 [2]: > 7.50
pIC50 [3]: > 7.50
Structure (SMILES): O=C(c1cc(Cc2n[nH]c(=O)c3ccccc23)ccc1F)N1CCN(C(=O)C2CC2)CC1 + CNC(C)C(=O)NC1CN(S(=O)(=O)c2cccc(S(=O)(=O)N3CCC4CCC(C(=O)NC(c5ccccc5)c5ccccc5)N4C(=O)C(NC(=O)C(C)NC)C3)c2)CCC2CCC(C(=O)NC(c3ccccc3)c3ccccc3)N2C1=O
viability, T/C (second compound 0.01 µM, first compound 0.0316 µM): 66.3%
viability, T/C (second compound 0.01 µM, first compound 0.1 µM): 73.2%
viability, T/C (second compound 0.01 µM, first compound 0.316 µM): 60.3%
viability, T/C (second compound 0.01 µM, first compound 1 µM): 70.3%
viability, T/C (second compound 0.01 µM, first compound 3.16 µM): 44.8%
viability, T/C (second compound 0.01 µM, first compound 10 µM): 27.5%
viability, T/C (second compound 0.0316 µM, first compound 0.0316 µM): 51.8%
viability, T/C (second compound 0.0316 µM, first compound 0.1 µM): 52%
viability, T/C (second compound 0.0316 µM, first compound 0.316 µM): 52.1%
viability, T/C (second compound 0.0316 µM, first compound 1 µM): 43.9%
viability, T/C (second compound 0.0316 µM, first compound 3.16 µM): 41.9%
viability, T/C (second compound 0.0316 µM, first compound 10 µM): 20%
viability, T/C [6]: 41%
viability, T/C [7]: 46.4%
viability, T/C [8]: 46.3%
viability, T/C [9]: 39.1%
viability, T/C [10]: 33.2%
viability, T/C [11]: 19.8%
viability, T/C [12]: 37.2%
viability, T/C [13]: 38%
viability, T/C [14]: 42.8%
viability, T/C [15]: 35.8%
viability, T/C [16]: 27.5%
viability, T/C [17]: 14.3%
viability, T/C [18]: 33.8%
viability, T/C [19]: 39.4%
viability, T/C [20]: 40.2%
viability, T/C [21]: 31.8%
viability, T/C [22]: 22.3%
viability, T/C [23]: 13.6%
